Test results published in PubChem BioAssay (NCI).
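Test compounds were applied to cells in 96-well plates for 48 hours at 5 doses. GI50 = concentration required for 50% inhibition of growth. TGI: concentration producing complete growth inhibition.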

Legend:
Test in all cases: DTP human tumour cell line panel, 48 h
HCC-2998 colon = tested on: HCC-2998 colon
HOP-92 NSCLC = tested on: HOP-92 NSCLC
KM12 colon = tested on: KM12 colon
MCF7 breast = tested on: MCF7 breast
MDA-MB-231 breast = tested on: MDA-MB-231 breast
MDA-MB-435 = tested on: MDA-MB-435
NCI-H460 lung = tested on: NCI-H460 lung
OVCAR-8 ovarian = tested on: OVCAR-8 ovarian
SK-MEL-5 melanoma = tested on: SK-MEL-5 melanoma
U251 CNS = tested on: U251 CNS

SMILES | GI50 (HCC-2998 colon) | TGI (HCC-2998 colon) | GI50 (HOP-92 NSCLC) | TGI (HOP-92 NSCLC) | GI50 (KM12 colon) | TGI (KM12 colon) | GI50 (MCF7 breast) | TGI (MCF7 breast) | GI50 (MDA-MB-231 breast) | TGI (MDA-MB-231 breast) | GI50 (MDA-MB-435) | TGI (MDA-MB-435) | GI50 (NCI-H460 lung) | TGI (NCI-H460 lung) | GI50 (OVCAR-8 ovarian) | TGI (OVCAR-8 ovarian) | GI50 (SK-MEL-5 melanoma) | TGI (SK-MEL-5 melanoma) | GI50 (U251 CNS) | TGI (U251 CNS)
C/C=C1\C(=O)O[C@@H]2C1C[C@@H]1O[C@H]2[C@H](C)CCC/C(C)=C/CC[C@@]1(C)O (stereo not given in full) | 2.95 µM | 6.33 µM | 7.62 µM | 31.5 µM | 13.9 µM | 31.7 µM | 2.33 µM | 6.1 µM | 8.36 µM | 21.7 µM | 6.67 µM | 22.9 µM | 4.81 µM | 25.7 µM | 2.52 µM | 6.76 µM | 3.03 µM | 9.4 µM | 10.3 µM | 23.6 µM
CN(C)c1ccc2cc(-c3cc4c(oc3=O)-c3ccccc3OC4O)c(=O)oc2c1 (stereo not given) | 6.99 µM | 20.2 µM | 7.49 µM | 17.7 µM | 6.05 µM | 16.2 µM | 3.23 µM | 11.2 µM | 4.9 µM | 11.5 µM | 3.67 µM | 15.9 µM | 4.14 µM | 14.3 µM | 3.2 µM | 15.7 µM | 0.752 µM | 4.67 µM | 5.85 µM | 15.7 µM
CCOC(=O)C#Cc1ccc([N+](=O)[O-])cc1 | – | 28.7 µM | – | 3.47 µM | – | 3.81 µM | – | 2.49 µM | – | 4.64 µM | – | 10.8 µM | – | 29.2 µM | – | 10.5 µM | – | 9.63 µM | – | 3 µM
Cc1cccc2c1NC(=O)[C@@]21[C@H](C(=O)c2ccccc2)[C@]2(C(=O)Nc3ccccc32)[C@H]2CCCN21 | 49.5 µM | > 100 µM | 24.7 µM | 59.1 µM | 58.9 µM | > 100 µM | 14.3 µM | > 100 µM | 21.3 µM | > 100 µM | 94.7 µM | > 100 µM | 24.6 µM | > 100 µM | 25.2 µM | 92.3 µM | 84.7 µM | > 100 µM | 28 µM | 92 µM
O=C(Nc1ccc(Cl)cc1)c1cc2cc(F)ccc2cc1O | 3.13 µM | > 100 µM | 0.288 µM | 0.809 µM | 2.74 µM | > 100 µM | 1.54 µM | 6.51 µM | 1.55 µM | 5.29 µM | 1.96 µM | 8.8 µM | 0.882 µM | > 100 µM | 2.93 µM | > 100 µM | 0.417 µM | 1.52 µM | 1.1 µM | 6.54 µM
COc1c(B(O)O)cccc1-c1nc2c(F)cc3[nH]ncc3c2c2c1CCCC2 | 2.22 µM | 8.91 µM | 0.0184 µM | 56.8 µM | 1.41 µM | 11.7 µM | 1.31 µM | 13.5 µM | 0.0423 µM | 35.9 µM | 0.287 µM | 2.06 µM | 1.79 µM | 11.9 µM | 2.03 µM | > 100 µM | 3.08 µM | 11.5 µM | 1.77 µM | > 44.9 µM
CN(C1=NS(=O)(=O)N=C(N(C)c2ccccc2)O1)c1ccccc1 | – | 36.7 µM | – | 54.6 µM | – | 34.4 µM | – | 38.9 µM | – | 41 µM | – | 30.4 µM | – | 47.7 µM | – | 33.3 µM | – | 25.5 µM | – | 36.8 µM
O=C1CCC2=C3C4CCCCC4C(=O)C4CCCC(OC2C1)C34 (stereo not given) | 3.41 µM | 15.7 µM | 2.43 µM | 8.95 µM | 1.75 µM | 5.46 µM | 1.21 µM | > 100 µM | 1.47 µM | > 27.6 µM | 0.516 µM | 2.08 µM | 0.87 µM | 4.57 µM | 0.397 µM | 23.7 µM | 0.729 µM | 2.35 µM | 0.428 µM | > 20.2 µM
O=C1/C=C/[C@@H](O)[C@@H]2C[C@@H](O)C[C@H]2/C=C/CCC[C@H](CO)O1 | 2.61 µM | > 100 µM | 2.76 µM | > 100 µM | 2.42 µM | > 100 µM | 1.79 µM | 5.88 µM | 1.96 µM | 4.81 µM | 2.91 µM | > 100 µM | 3.21 µM | > 100 µM | 3 µM | > 100 µM | 0.705 µM | 2.08 µM | 3.3 µM | > 100 µM
CCC(c1ccc(OC)cc1)C(CC)c1ccc(O)c(CN2CCCC2)c1 (stereo not given) | 2.29 µM | 4.38 µM | 1.57 µM | 3.58 µM | 3.72 µM | 15.3 µM | 2.74 µM | 6.47 µM | 2.49 µM | 6.03 µM | 2.01 µM | 4.76 µM | 3.41 µM | 11.6 µM | 3.08 µM | 10.7 µM | 1.74 µM | 3.22 µM | 2.25 µM | 5.67 µM
CCn1cc(C(=O)N/N=C/c2cccc(F)c2)c(=O)c2cc(F)c(N3CCNC(C)C3)c(F)c21 (stereo not given) | 1.86 µM | 3.53 µM | 1.12 µM | 2.42 µM | 1.83 µM | 3.39 µM | 1.64 µM | 3.18 µM | 1.68 µM | 3.14 µM | 1.71 µM | 3.12 µM | 1.68 µM | 3.14 µM | 1.76 µM | 3.32 µM | 1.75 µM | 3.19 µM | 1.61 µM | 3.03 µM
